According to BindingDB's records for PubMed 7965765 (University of Cincinnati, 1994):
Values joined by “and” are separate entries in the source; they are usually repeats but may differ in a detail not shown here. Equal values may be shown once.

Biological target: T1, Thromboxane A2 receptor (Homo sapiens, UniProt P21731)
T1 sequence (P21731 whole entry): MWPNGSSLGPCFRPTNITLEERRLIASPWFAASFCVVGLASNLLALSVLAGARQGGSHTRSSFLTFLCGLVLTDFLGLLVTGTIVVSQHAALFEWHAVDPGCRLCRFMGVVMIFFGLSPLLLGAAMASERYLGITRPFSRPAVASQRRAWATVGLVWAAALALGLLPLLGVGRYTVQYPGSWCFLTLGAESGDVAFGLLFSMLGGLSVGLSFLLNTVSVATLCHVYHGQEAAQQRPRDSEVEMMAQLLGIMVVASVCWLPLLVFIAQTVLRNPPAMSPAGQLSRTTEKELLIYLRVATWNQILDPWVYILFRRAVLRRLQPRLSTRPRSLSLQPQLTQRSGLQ

Ki | Compound
3.7 nM and 1.4 nM | O=C(O)CCC/C=C\C[C@@H]1[C@@H](/C=C/[C@@H](O)COc2ccc(I)cc2)[C@H]2CC[C@@H]1O2 [CAS_128719-90-4]
64 nM and 44 nM and 38 nM | CCCCCC(O)C=CC1C2COC(C2)C1CC=CCCCC(=O)O (centres undefined) [NSC_114865]
117 nM and 400 nM and 121 nM | CC1(C)C2CC(NCC(O)Cc3ccc(O)c(I)c3)C(CC=CCCCC(=O)O)C1C2 (centres undefined) [NSC_122979]
77 nM and 82 nM and 50 nM | CCCCC[C@H](O)/C=C/C1[C@@H](C/C=C\CCCC(=O)O)[C@H]2CO[C@@H]1C2 (some centres undefined) [U46619]
